# According to ChEMBL document CHEMBL2150933 (J Med Chem, 2012):
# Activity calls are given as the source filed them. The rule behind the calls is not given here.
# Tests used:
# NCI-H226 = test: Cytotoxicity against human NCI-H226 cells after 48 hrs by SRB assay; format: functional; conditions: NCI-H226, 48 h
# MDA-MB-468 = test: Cytotoxicity against human MDA-MB-468 cells after 48 hrs by SRB assay; format: functional; conditions: MDA-MB-468, 48 h
# ACHN = test: Cytotoxicity against human ACHN cells after 48 hrs by SRB assay; format: functional
# OVCAR-5 = test: Cytotoxicity against human OVCAR5 cells after 48 hrs by SRB assay; format: functional; conditions: OVCAR-5, 48 h
# Mus musculus [1] = test: Toxicity in athymic nu/nu Harlan mouse xenografted with human SK-MEL-2 cells assessed as change in body weight at 20 mg/kg, iv administered Q3D for 10 days relative to control; format: organism-based; set-up: dose 20 mg/kg, route intravenous; conditions: in vivo, 240 h
# HL-60 = test: Cytotoxicity against human HL60 cells after 48 hrs by SRB assay; format: functional; conditions: HL-60, 48 h
# COLO 205 [2] = test: Cytotoxicity against human COLO205 cells after 48 hrs by SRB assay; format: functional; conditions: COLO 205, 48 h, read-out: pGI50 (converted)
# CAKI-1 = test: Cytotoxicity against human Caki1 cells after 48 hrs by SRB assay; format: functional; conditions: CAKI-1, 48 h
# Mus musculus [3] = test: Toxicity in iv dosed CD1 mouse administered Q3D for 8 days; format: organism-based; conditions: in vivo, 192 h
# HCC 2998 = test: Cytotoxicity against human HCC2998 cells after 48 hrs by SRB assay; format: functional; conditions: HCC 2998, 48 h
# Mus musculus [4] = test: Toxicity in athymic nu/nu Harlan mouse xenografted with human COLO205 cells assessed as change in body weight at 10 mg/kg, iv administered Q2D for 10 days relative to control; format: organism-based, COLO 205; set-up: dose 10 mg/kg, route intravenous; conditions: in vivo, 240 h
# MDA-MB-435 = test: Cytotoxicity against human MDA-MB-435 cells after 48 hrs by SRB assay; format: functional; conditions: MDA-MB-435, 48 h
# [5] = Toxicity in iv dosed CD1 mouse administered as single dose; format: organism-based; conditions: in vivo
# KM12 = test: Cytotoxicity against human KM12 cells after 48 hrs by SRB assay; format: functional; conditions: KM12, 48 h
# T47D = test: Cytotoxicity against human T47D cells after 48 hrs by SRB assay; format: functional
# COLO 205 [6] = test: Antitumor activity against human COLO205 cells xenografted in athymic nu/nu Harlan mouse assessed as tumor growth inhibition at 20 mg/kg, iv administered Q3D for 10 days relative to control; format: functional, organism-based; set-up: dose 20 mg/kg
# COLO 205 [7] = test: Cytotoxicity against human COLO205 cells after 72 hrs by MTT assay; format: functional; conditions: COLO 205, 72 h
# SK-MEL-2 = test: Antitumor activity against human SK-MEL-2 cells xenografted in athymic nu/nu Harlan mouse assessed as tumor growth inhibition at 20 mg/kg, iv administered Q3D for 10 days relative to control; format: functional, organism-based; set-up: dose 20 mg/kg
# MDA-MB-231 = test: Cytotoxicity against human MDA-MB-231 cells after 48 hrs by SRB assay; format: functional; conditions: MDA-MB-231, 48 h
# Mus musculus [8] = test: Toxicity in athymic nu/nu Harlan mouse xenografted with human COLO205 cells assessed as adverse reactions at 10 mg/kg, iv administered Q2D for 10 days relative to control; format: organism-based, COLO 205; set-up: dose 10 mg/kg, route intravenous; conditions: in vivo, 240 h
# Mus musculus [9] = test: Toxicity in athymic nu/nu Harlan mouse xenografted with human COLO205 cells assessed as mortality at 10 mg/kg, iv administered Q2D for 10 days relative to control; format: organism-based, COLO 205; set-up: dose 10 mg/kg, route intravenous; conditions: in vivo, 240 h
# SNB-75 = test: Cytotoxicity against human SNB75 cells after 48 hrs by SRB assay; format: functional; conditions: SNB-75, 48 h
# OVCAR-4 = test: Cytotoxicity against human OVCAR4 cells after 48 hrs by SRB assay; format: functional; conditions: OVCAR-4, 48 h
# A549 = test: Cytotoxicity against human A549 cells after 48 hrs by SRB assay; format: functional; conditions: A549, 48 h, read-out: pGI50 (converted)
# Mus musculus [10] = test: Toxicity in athymic nu/nu Harlan mouse xenografted with human SK-MEL-2 cells assessed as mortality at 10 mg/kg, iv administered Q2D for 10 days relative to control; format: organism-based; set-up: dose 10 mg/kg, route intravenous; conditions: in vivo, 240 h
# LOX IMVI = test: Cytotoxicity against human LOXIMVI cells after 48 hrs by SRB assay; format: functional
# M14 = test: Cytotoxicity against human M14 cells after 48 hrs by SRB assay; format: functional; conditions: M14, 48 h
# DU-145 = test: Cytotoxicity against human DU145 cells after 48 hrs by SRB assay; format: functional; conditions: DU-145, 48 h
# NCI-H460 = test: Cytotoxicity against human NCI-H460 cells after 48 hrs by SRB assay; format: functional; conditions: NCI-H460, 48 h
# SNB-19 = test: Cytotoxicity against human SNB19 cells after 48 hrs by SRB assay; format: functional; conditions: SNB-19, 48 h
# Mus musculus [11] = test: Toxicity in athymic nu/nu Harlan mouse xenografted with human SK-MEL-2 cells assessed as mortality at 20 mg/kg, iv administered Q3D for 10 days relative to control; format: organism-based; set-up: dose 20 mg/kg, route intravenous; conditions: in vivo, 240 h
# Mus musculus [12] = test: Toxicity in athymic nu/nu Harlan mouse xenografted with human COLO205 cells assessed as change in body weight at 20 mg/kg, iv administered Q3D for 10 days relative to control; format: organism-based, COLO 205; set-up: dose 20 mg/kg, route intravenous; conditions: in vivo, 240 h
# U-251 = test: Cytotoxicity against human U251 cells after 48 hrs by SRB assay; format: functional; conditions: U-251, 48 h, read-out: pGI50 (converted)
# HOP-62 = test: Cytotoxicity against human HOP62 cells after 48 hrs by SRB assay; format: functional; conditions: HOP-62, 48 h
# UO-31 = test: Cytotoxicity against human UO31 cells after 48 hrs by SRB assay; format: functional; conditions: UO-31, 48 h
# CCRF-CEM = test: Cytotoxicity against human CCRF-CEM cells after 48 hrs by SRB assay; format: functional
# NCI-H522 = test: Cytotoxicity against human NCI-H522 cells after 48 hrs by SRB assay; format: functional; conditions: NCI-H522, 48 h
structure (smiles),measurement,setting,value
CO[C@@H]([C@@H]1Cc2cc3cc(O[C@H]4C[C@@H](O[C@H]5C[C@@H](O)[C@H](O)[C@@H](C)O5)[C@H](O)[C@@H](C)O4)c(C)c(O)c3c(O)c2C(=O)[C@H]1O[C@H]1C[C@@H](O[C@H]2C[C@@H](O[C@H]3C[C@H](O)[C@H](O)[C@@H](C)O3)[C@H](O)[C@@H](C)O2)[C@H](O)[C@@H](C)O1)[C@@H](O)C(C)=O,GI50,NCI-H226,0.0204 µM
same,GI50,MDA-MB-468,0.0339 µM
same,GI50,ACHN,0.0347 µM
same,GI50,OVCAR-5,0.0398 µM
same,Activity,Mus musculus [1],Non-toxic
same,GI50,HL-60,0.024 µM
same,GI50,COLO 205 [2],0.0214 µM
same,GI50,CAKI-1,0.138 µM
same,MTD,Mus musculus [3],24 mg/kg
same,GI50,HCC 2998,0.0162 µM
same,Activity,Mus musculus [4],Non-toxic
same,GI50,MDA-MB-435,0.0234 µM
same,MTD,[5],64 mg/kg
same,GI50,KM12,0.0178 µM
same,GI50,T47D,0.0257 µM
same,TGI,COLO 205 [6],Active
same,GI50,COLO 205 [7],0.3 µM
same,TGI,SK-MEL-2,Active
same,GI50,MDA-MB-231; read-out: GI50,0.05 µM
same,GI50,MDA-MB-231; read-out: pGI50 (converted),0.0479 µM
same,Activity,Mus musculus [8],Non-toxic
same,Activity,Mus musculus [9],Non-toxic
same,GI50,SNB-75,0.0324 µM
same,GI50,OVCAR-4,0.0562 µM
same,GI50,A549,0.0204 µM
same,Activity,Mus musculus [10],Non-toxic
same,GI50,LOX IMVI,0.0166 µM
same,GI50,M14,0.0457 µM
same,GI50,DU-145,0.0204 µM
same,GI50,NCI-H460,0.0178 µM
same,GI50,SNB-19,0.0282 µM
same,Activity,Mus musculus [11],Non-toxic
same,Activity,Mus musculus [12],Non-toxic
same,GI50,U-251,0.0186 µM
same,GI50,HOP-62,0.0246 µM
same,GI50,UO-31,0.0692 µM
same,GI50,CCRF-CEM,0.0246 µM
same,GI50,NCI-H522,0.0178 µM
